# What was measured:
# [1] = target: Tyrosine-protein kinase CSK (Homo sapiens) (UniProt P41240); conditions: Compound concentration 100.0 nM
# [2] = target: Misshapen-like kinase 1 (Homo sapiens) (UniProt Q8N4C8); conditions: Compound concentration 100.0 nM
# [3] = target: Mitogen-activated protein kinase kinase kinase kinase 1 (Homo sapiens) (UniProt Q92918); conditions: Compound concentration 100.0 nM
# [4] = target: GABA-A receptor; anion channel (Rattus norvegicus) (UniProt O09028+P15431+P18506+P18508+P19969+P20236+P23574+P23576+P28471+P28473+P30191+P62813+P63079+P63138+Q91ZM7+Q9ES14); conditions: Compound concentration 10.0 uM
# [5] = target: Serine/threonine-protein kinase MARK2 (Homo sapiens) (UniProt Q7KZI7); conditions: Compound concentration 100.0 nM
# [6] = target: Serine/threonine-protein kinase Nek6 (Homo sapiens) (UniProt Q9HC98); conditions: Compound concentration 100.0 nM
# [7] = target: Serine/threonine-protein kinase 32C (Homo sapiens) (UniProt Q86UX6); conditions: Compound concentration 100.0 nM
# [8] = target: Serine/threonine-protein kinase PLK2 (Homo sapiens) (UniProt Q9NYY3); conditions: Compound concentration 100.0 nM
# [9] = target: Ribosomal protein S6 kinase beta-1 (Homo sapiens) (UniProt P23443); conditions: Compound concentration 100.0 nM
# [10] = target: Ephrin type-A receptor 8 (Homo sapiens) (UniProt P29322); conditions: Compound concentration 100.0 nM
# [11] = target: Leucine-rich repeat serine/threonine-protein kinase 2 (Homo sapiens) (UniProt Q5S007); conditions: Compound concentration 100.0 nM
# [12] = target: Epithelial discoidin domain-containing receptor 1 (Homo sapiens) (UniProt Q08345); conditions: Compound concentration 100.0 nM
# [13] = target: Tyrosine-protein kinase Fyn (Homo sapiens) (UniProt P06241); conditions: Compound concentration 100.0 nM
# [14] = tested on: ALK tyrosine kinase receptor (Homo sapiens), Q9UM73 [L1196M]; conditions: Compound concentration 100.0 nM
# [15] = target: D(2) dopamine receptor (Homo sapiens) (UniProt P14416); conditions: Compound concentration 10.0 uM
# [16] = target: Tyrosine-protein kinase Yes (Homo sapiens) (UniProt P07947); conditions: Compound concentration 100.0 nM
# [17] = target: AP2-associated protein kinase 1 (Homo sapiens) (UniProt Q2M2I8); conditions: Compound concentration 100.0 nM
# [18] = target: Serine/threonine-protein kinase PAK 2 (Homo sapiens) (UniProt Q13177); conditions: Compound concentration 100.0 nM
# [19] = target: Proto-oncogene tyrosine-protein kinase Src (Homo sapiens) (UniProt P12931); conditions: Compound concentration 100.0 nM
# [20] = target: Phosphatidylinositol 4-phosphate 5-kinase type-1 gamma (Homo sapiens) (UniProt O60331); conditions: Compound concentration 100.0 nM
# [21] = target: Serine/threonine-protein kinase TAO3 (Homo sapiens) (UniProt Q9H2K8); conditions: Compound concentration 100.0 nM
# [22] = target: Cyclin-dependent kinase 2 (Homo sapiens) (UniProt P24941); conditions: Compound concentration 100.0 nM
# [23] = target: Serine/threonine-protein kinase NLK (Homo sapiens) (UniProt Q9UBE8); conditions: Compound concentration 100.0 nM
# [24] = target: Calcium/calmodulin-dependent protein kinase type 1 (Homo sapiens) (UniProt Q14012); conditions: Compound concentration 100.0 nM
# [25] = target: Protein-tyrosine kinase 6 (Homo sapiens) (UniProt Q13882); conditions: Compound concentration 100.0 nM
# [26] = target: Casein kinase I isoform gamma-3 (Homo sapiens) (UniProt Q9Y6M4); conditions: Compound concentration 100.0 nM
# [27] = target: Ephrin type-A receptor 4 (Homo sapiens) (UniProt P54764); conditions: Compound concentration 100.0 nM
# [28] = target: Ephrin type-B receptor 1 (Homo sapiens) (UniProt P54762); conditions: Compound concentration 100.0 nM
# [29] = target: Dual specificity protein kinase CLK2 (Homo sapiens) (UniProt P49760); conditions: Compound concentration 100.0 nM
# [30] = target: Serine/threonine-protein kinase MRCK beta (Homo sapiens) (UniProt Q9Y5S2); conditions: Compound concentration 100.0 nM
# [31] = target: Phosphatidylinositol 4,5-bisphosphate 3-kinase catalytic subunit alpha isoform (Homo sapiens) (UniProt P42336); conditions: Compound concentration 100.0 nM
# [32] = target: Homeodomain-interacting protein kinase 3 (Homo sapiens) (UniProt Q9H422); conditions: Compound concentration 100.0 nM
# [33] = target: Sodium-dependent noradrenaline transporter (Homo sapiens) (UniProt P23975); conditions: Compound concentration 10.0 uM
# [34] = target: Phosphatidylinositol 4-kinase beta (Homo sapiens) (UniProt Q9UBF8); conditions: Compound concentration 100.0 nM
# [35] = target: Ribosomal protein S6 kinase alpha-1 (Homo sapiens) (UniProt Q15418); conditions: Compound concentration 100.0 nM
# [36] = target: LIM domain kinase 1 (Homo sapiens) (UniProt P53667); conditions: Compound concentration 100.0 nM
# [37] = target: Serine/threonine-protein kinase mTOR (Homo sapiens) (UniProt P42345); conditions: Compound concentration 100.0 nM
# [38] = target: Mitogen-activated protein kinase kinase kinase 13 (Homo sapiens) (UniProt O43283); conditions: Compound concentration 100.0 nM
# [39] = target: Serine/threonine-protein kinase WNK3 (Homo sapiens) (UniProt Q9BYP7); conditions: Compound concentration 100.0 nM
# [40] = target: Tyrosine-protein kinase JAK3 (Homo sapiens) (UniProt P52333); conditions: Compound concentration 100.0 nM
# [41] = tested on: Mast/stem cell growth factor receptor Kit (Homo sapiens), P10721 [D816V]; conditions: Compound concentration 100.0 nM
# [42] = target: Mitogen-activated protein kinase 3 (Homo sapiens) (UniProt P27361); conditions: Compound concentration 100.0 nM
# [43] = target: Casein kinase I isoform alpha-like (Homo sapiens) (UniProt Q8N752); conditions: Compound concentration 100.0 nM
# [44] = target: Calcium/calmodulin-dependent protein kinase type II subunit gamma (Homo sapiens) (UniProt Q13555); conditions: Compound concentration 100.0 nM
# Serine/threonine-protein kinase 32C (Homo sapiens), sequence (Q86UX6 whole entry): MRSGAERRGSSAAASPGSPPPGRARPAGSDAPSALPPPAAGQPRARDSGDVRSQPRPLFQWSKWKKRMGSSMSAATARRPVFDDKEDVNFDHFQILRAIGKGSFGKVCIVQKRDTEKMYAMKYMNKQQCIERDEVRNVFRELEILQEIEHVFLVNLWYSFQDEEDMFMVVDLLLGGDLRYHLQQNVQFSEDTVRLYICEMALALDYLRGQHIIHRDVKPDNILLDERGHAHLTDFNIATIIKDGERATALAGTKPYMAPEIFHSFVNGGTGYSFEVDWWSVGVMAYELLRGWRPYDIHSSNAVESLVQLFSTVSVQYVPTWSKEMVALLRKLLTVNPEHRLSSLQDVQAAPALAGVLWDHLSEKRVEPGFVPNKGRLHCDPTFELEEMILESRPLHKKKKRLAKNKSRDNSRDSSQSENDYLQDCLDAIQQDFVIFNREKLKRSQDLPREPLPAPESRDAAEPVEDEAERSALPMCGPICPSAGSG
# Tyrosine-protein kinase Fyn (Homo sapiens), sequence (P06241 2-537 limits assumed): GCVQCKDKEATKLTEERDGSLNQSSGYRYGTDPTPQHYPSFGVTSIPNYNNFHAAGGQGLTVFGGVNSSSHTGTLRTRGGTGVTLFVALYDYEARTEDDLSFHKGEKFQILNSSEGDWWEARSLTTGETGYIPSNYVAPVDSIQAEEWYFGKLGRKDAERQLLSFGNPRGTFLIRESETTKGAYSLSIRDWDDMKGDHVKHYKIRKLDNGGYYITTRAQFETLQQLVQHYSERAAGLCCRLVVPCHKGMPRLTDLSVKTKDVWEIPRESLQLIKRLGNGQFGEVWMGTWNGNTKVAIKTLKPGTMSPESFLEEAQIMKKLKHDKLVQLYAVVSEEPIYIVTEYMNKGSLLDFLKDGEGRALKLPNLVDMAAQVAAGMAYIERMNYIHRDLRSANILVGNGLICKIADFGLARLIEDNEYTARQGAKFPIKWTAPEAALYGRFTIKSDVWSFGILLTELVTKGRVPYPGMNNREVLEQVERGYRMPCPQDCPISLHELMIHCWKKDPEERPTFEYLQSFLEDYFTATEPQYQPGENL
# Serine/threonine-protein kinase TAO3 (Homo sapiens), sequence (Q9H2K8 whole entry): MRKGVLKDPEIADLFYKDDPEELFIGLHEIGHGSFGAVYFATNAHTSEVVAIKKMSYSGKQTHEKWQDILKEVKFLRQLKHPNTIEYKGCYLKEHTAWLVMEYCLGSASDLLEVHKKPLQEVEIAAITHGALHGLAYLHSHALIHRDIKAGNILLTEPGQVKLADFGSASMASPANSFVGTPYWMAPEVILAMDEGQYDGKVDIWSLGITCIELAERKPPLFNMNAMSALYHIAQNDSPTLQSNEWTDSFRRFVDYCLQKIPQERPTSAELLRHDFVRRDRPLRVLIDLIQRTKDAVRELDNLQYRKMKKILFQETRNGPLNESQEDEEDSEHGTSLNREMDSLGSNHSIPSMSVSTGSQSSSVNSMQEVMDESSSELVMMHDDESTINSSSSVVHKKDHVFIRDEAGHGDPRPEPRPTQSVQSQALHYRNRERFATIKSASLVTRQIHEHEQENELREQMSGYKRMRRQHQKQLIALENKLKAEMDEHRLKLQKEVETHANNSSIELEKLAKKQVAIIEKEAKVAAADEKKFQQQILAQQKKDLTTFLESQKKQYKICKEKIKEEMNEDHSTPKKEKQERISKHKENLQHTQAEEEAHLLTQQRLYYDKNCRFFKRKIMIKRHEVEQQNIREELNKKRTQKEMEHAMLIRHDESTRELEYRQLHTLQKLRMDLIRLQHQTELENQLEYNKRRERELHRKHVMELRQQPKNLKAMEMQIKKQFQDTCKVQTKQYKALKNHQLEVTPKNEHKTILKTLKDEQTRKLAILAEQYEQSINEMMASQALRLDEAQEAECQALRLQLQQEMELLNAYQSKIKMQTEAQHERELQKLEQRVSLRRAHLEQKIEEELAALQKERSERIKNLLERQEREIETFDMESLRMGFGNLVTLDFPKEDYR
# Mitogen-activated protein kinase kinase kinase kinase 1 (Homo sapiens), sequence (Q92918 whole entry, looked up): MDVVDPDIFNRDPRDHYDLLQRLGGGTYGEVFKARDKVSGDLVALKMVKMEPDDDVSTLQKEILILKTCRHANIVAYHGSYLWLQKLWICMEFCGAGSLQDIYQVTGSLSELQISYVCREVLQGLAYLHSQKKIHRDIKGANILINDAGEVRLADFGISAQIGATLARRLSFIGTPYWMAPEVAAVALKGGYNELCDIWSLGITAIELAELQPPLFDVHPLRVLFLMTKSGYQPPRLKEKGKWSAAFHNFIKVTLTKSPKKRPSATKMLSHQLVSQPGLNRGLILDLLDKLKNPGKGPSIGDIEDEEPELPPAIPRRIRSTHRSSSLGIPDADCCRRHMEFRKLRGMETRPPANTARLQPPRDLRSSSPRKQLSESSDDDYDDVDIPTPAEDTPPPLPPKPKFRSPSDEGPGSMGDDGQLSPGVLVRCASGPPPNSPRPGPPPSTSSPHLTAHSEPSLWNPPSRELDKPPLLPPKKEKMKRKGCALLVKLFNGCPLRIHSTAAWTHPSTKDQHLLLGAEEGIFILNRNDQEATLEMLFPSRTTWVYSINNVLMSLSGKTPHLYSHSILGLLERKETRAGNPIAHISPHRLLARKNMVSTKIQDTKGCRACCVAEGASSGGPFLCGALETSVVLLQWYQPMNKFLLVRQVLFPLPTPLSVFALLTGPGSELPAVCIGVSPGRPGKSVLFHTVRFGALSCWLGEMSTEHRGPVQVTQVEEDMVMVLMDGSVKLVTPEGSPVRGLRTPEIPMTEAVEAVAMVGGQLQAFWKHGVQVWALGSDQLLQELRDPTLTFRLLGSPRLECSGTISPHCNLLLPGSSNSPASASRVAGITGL
# Sodium-dependent noradrenaline transporter (Homo sapiens), sequence (P23975 whole entry): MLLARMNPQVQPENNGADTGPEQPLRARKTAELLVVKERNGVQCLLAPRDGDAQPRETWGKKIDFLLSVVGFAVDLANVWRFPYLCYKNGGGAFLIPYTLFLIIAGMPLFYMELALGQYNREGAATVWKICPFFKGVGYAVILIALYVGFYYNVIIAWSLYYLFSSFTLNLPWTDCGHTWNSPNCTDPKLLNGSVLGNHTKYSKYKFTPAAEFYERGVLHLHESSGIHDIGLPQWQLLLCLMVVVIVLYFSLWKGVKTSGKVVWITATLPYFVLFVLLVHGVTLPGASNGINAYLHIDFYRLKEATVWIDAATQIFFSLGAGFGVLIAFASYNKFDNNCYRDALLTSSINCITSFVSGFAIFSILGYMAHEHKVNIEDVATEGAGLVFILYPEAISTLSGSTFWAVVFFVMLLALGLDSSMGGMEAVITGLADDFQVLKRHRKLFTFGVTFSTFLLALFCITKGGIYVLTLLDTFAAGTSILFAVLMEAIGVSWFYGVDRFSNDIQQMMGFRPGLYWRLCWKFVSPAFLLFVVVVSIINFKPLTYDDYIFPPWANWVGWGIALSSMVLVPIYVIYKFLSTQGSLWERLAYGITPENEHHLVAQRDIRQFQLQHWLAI
# Serine/threonine-protein kinase MRCK beta (Homo sapiens), sequence (Q9Y5S2 whole entry, canonical isoform): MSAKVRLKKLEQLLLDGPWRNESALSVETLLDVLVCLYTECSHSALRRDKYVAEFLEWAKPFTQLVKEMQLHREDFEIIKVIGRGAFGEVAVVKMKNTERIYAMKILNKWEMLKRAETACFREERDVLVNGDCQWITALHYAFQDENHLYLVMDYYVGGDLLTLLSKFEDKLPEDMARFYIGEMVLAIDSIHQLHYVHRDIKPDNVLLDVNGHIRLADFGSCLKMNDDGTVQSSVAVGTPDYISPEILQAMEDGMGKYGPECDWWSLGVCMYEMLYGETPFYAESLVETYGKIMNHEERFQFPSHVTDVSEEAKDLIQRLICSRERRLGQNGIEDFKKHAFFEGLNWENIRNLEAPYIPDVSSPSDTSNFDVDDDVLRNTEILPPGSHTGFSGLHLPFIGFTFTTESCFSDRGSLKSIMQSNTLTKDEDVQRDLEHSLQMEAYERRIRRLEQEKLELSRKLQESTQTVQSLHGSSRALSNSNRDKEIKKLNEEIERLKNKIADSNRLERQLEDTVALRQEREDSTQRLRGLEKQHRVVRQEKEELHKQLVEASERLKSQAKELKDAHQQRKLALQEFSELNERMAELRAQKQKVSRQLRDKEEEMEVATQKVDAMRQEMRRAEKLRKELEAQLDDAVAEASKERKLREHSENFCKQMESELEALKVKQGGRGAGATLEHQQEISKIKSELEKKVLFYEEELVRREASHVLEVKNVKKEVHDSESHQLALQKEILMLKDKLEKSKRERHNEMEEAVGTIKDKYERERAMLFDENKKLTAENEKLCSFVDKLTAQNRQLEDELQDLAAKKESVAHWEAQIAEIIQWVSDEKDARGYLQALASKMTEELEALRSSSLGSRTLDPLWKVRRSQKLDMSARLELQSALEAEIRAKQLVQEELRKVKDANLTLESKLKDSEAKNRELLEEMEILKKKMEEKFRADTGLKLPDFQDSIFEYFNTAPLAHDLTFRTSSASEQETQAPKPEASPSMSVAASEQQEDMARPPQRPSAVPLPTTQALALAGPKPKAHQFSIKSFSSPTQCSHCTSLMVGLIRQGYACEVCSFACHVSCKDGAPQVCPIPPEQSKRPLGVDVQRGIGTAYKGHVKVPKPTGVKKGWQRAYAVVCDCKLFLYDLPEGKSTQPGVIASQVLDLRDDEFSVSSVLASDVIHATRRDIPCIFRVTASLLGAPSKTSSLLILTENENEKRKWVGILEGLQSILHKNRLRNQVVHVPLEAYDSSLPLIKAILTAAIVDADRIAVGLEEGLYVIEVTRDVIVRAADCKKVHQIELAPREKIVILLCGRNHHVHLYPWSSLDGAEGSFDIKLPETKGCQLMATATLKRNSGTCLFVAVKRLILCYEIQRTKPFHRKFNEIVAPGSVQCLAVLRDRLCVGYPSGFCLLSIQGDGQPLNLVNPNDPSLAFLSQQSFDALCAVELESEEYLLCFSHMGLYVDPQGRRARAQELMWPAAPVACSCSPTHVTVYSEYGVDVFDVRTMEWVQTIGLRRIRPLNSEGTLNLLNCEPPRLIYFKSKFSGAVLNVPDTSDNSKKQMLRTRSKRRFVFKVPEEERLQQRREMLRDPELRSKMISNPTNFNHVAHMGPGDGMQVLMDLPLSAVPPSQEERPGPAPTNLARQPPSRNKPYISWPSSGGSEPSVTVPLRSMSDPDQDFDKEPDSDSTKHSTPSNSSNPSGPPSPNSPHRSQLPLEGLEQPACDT
smiles,measurement,setting,value
Nc1c(C(=O)NCc2ccc(C(=O)NCCCC3CCCCC3)cc2)cnn1-c1ccccc1 [SR-318],residual activity,[1],100%
same,residual activity,[2],100%
same,residual activity,[3],99%
same,inhibition,[4],13.3%
same,residual activity,[5],65%
same,residual activity,[6],100%
same,residual activity,[7],90%
same,residual activity,[8],100%
same,residual activity,[9],100%
same,residual activity,[10],100%
same,residual activity,[11],39%
same,residual activity,[12],43%
same,residual activity,[13],100%
same,residual activity,[14],100%
same,inhibition,[15],15%
same,residual activity,[16],100%
same,residual activity,[17],100%
same,residual activity,[18],66%
same,residual activity,[19],100%
same,residual activity,[20],93%
same,residual activity,[21],96%
same,residual activity,[22],96%
same,residual activity,[23],96%
same,residual activity,[24],100%
same,residual activity,[25],96%
same,residual activity,[26],100%
same,residual activity,[27],100%
same,residual activity,[28],100%
same,residual activity,[29],100%
same,residual activity,[30],100%
same,residual activity,[31],100%
same,residual activity,[32],100%
same,inhibition,[33],13.5%
same,residual activity,[34],100%
same,residual activity,[35],100%
same,residual activity,[36],100%
same,residual activity,[37],100%
same,residual activity,[38],100%
same,residual activity,[39],92%
same,residual activity,[40],100%
same,residual activity,[41],100%
same,residual activity,[42],94%
same,residual activity,[43],98%
same,residual activity,[44],100%
O=C(NCCCC1CCCCC1)c1ccc(CNC(=O)c2cnn(-c3ccccc3)c2C(F)(F)F)cc1 [SR-321],residual activity,[1],100%
same,residual activity,[2],97%
same,residual activity,[3],100%
same,inhibition,[4],14%
same,residual activity,[5],100%
same,residual activity,[6],83%
same,residual activity,[7],100%
same,residual activity,[8],100%
same,residual activity,[9],96%
same,residual activity,[10],95%
same,residual activity,[11],57%
same,residual activity,[12],100%
same,residual activity,[13],86%
same,residual activity,[14],100%
same,inhibition,[15],15.8%
same,residual activity,[16],100%
same,residual activity,[17],100%
same,residual activity,[18],100%
same,residual activity,[19],100%
same,residual activity,[20],90%
same,residual activity,[21],99%
same,residual activity,[22],96%
same,residual activity,[23],100%
same,residual activity,[24],100%
same,residual activity,[25],97%
same,residual activity,[26],100%
same,residual activity,[27],70%
same,residual activity,[28],89%
same,residual activity,[29],100%
same,residual activity,[30],100%
same,residual activity,[31],100%
same,residual activity,[32],88%
same,inhibition,[33],-1.78%
same,residual activity,[34],77%
same,residual activity,[35],100%
same,residual activity,[36],100%
same,residual activity,[37],100%
same,residual activity,[38],100%
same,residual activity,[39],100%
same,residual activity,[40],100%
same,residual activity,[41],100%
same,residual activity,[42],93%
same,residual activity,[43],94%
same,residual activity,[44],100%

# From ChEMBL document CHEMBL4507315 (2021)
